Results from PubChem BioAssay (NCI).
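Each compound was tested at five concentrations against cells in 96-well plates for 48 hours. The concentration for 50% growth inhibition is given as GI50. TGI denotes the concentration required for complete inhibition of growth.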

What was measured:
Test in all cases: inhibition of tumour cell growth, NCI panel, 48 h
OVCAR-4 ovarian = system: OVCAR-4 ovarian
HL-60(TB) leukemia = system: HL-60(TB) leukemia
SNB-19 CNS = system: SNB-19 CNS
U251 CNS = system: U251 CNS
OVCAR-8 ovarian = system: OVCAR-8 ovarian
M14 melanoma = system: M14 melanoma
786-0 renal = system: 786-0 renal
NCI-H460 lung = system: NCI-H460 lung
SF-539 CNS = system: SF-539 CNS
A498 renal = system: A498 renal
SK-MEL-5 melanoma = system: SK-MEL-5 melanoma
LOX IMVI melanoma = system: LOX IMVI melanoma
EKVX NSCLC = system: EKVX NSCLC
UACC-257 melanoma = system: UACC-257 melanoma
UO-31 renal = system: UO-31 renal
COLO 205 colon = system: COLO 205 colon
OVCAR-3 ovarian = system: OVCAR-3 ovarian
UACC-62 melanoma = system: UACC-62 melanoma
HCT-116 colon = system: HCT-116 colon
A549 NSCLC = system: A549 NSCLC
CAKI-1 renal = system: CAKI-1 renal
OVCAR-5 ovarian = system: OVCAR-5 ovarian
SF-295 CNS = system: SF-295 CNS
RXF 393 renal = system: RXF 393 renal
MDA-MB-231 breast = system: MDA-MB-231 breast
MDA-MB-435 = system: MDA-MB-435
T-47D breast = system: T-47D breast
SK-MEL-28 melanoma = system: SK-MEL-28 melanoma
HS 578T breast = system: HS 578T breast
NCI-H522 lung = system: NCI-H522 lung
SF-268 CNS = system: SF-268 CNS
NCI/ADR-RES ovarian = system: NCI/ADR-RES ovarian
MALME-3M melanoma = system: MALME-3M melanoma
SW-620 colon = system: SW-620 colon
SR leukemia = system: SR leukemia
TK-10 renal = system: TK-10 renal
SN12C renal = system: SN12C renal
MCF7 breast = system: MCF7 breast
HOP-62 NSCLC = system: HOP-62 NSCLC
PC-3 prostate = system: PC-3 prostate
CCRF-CEM leukemia = system: CCRF-CEM leukemia
KM12 colon = system: KM12 colon
NCI-H23 lung = system: NCI-H23 lung
NCI-H226 lung = system: NCI-H226 lung
HCT-15 colon = system: HCT-15 colon
IGROV1 ovarian = system: IGROV1 ovarian
SK-OV-3 ovarian = system: SK-OV-3 ovarian
MOLT-4 leukemia = system: MOLT-4 leukemia
DU-145 prostate = system: DU-145 prostate
K-562 leukemia = system: K-562 leukemia

With CCOc1ccc2nc(S/C(=C/C=C(C#N)C#N)c3ccc(Cl)cc3)sc2c1 the GI50 (OVCAR-4 ovarian) was 12.4 µM, the TGI (OVCAR-4 ovarian) was 43.8 µM and the GI50 (HL-60(TB) leukemia) was 3.08 µM. For the same compound, the TGI (HL-60(TB) leukemia) was 34.3 µM, the GI50 (SNB-19 CNS) was 6.72 µM and the TGI (SNB-19 CNS) was 24.5 µM. The GI50 (U251 CNS) was 0.628 µM, the TGI (U251 CNS) was 4.29 µM and the GI50 (OVCAR-8 ovarian) was 3.48 µM. The TGI (OVCAR-8 ovarian) was 10.3 µM, the GI50 (M14 melanoma) was 2.13 µM and the TGI (M14 melanoma) was 4.61 µM. It also gave a GI50 (786-0 renal) of 1.95 µM, a TGI (786-0 renal) of 4.37 µM and a GI50 (NCI-H460 lung) of 7.49 µM. For the same compound, the TGI (NCI-H460 lung) was 25 µM, the GI50 (SF-539 CNS) was 3.6 µM and the TGI (SF-539 CNS) was 9.24 µM. The GI50 (A498 renal) was 2.46 µM, the TGI (A498 renal) was 8.6 µM and the GI50 (SK-MEL-5 melanoma) was 1.76 µM. It also gave a TGI (SK-MEL-5 melanoma) of 3.86 µM, a GI50 (LOX IMVI melanoma) of 0.546 µM and a TGI (LOX IMVI melanoma) of 2.03 µM. The GI50 (EKVX NSCLC) was 12.9 µM, the TGI (EKVX NSCLC) was 28.9 µM and the GI50 (UACC-257 melanoma) was 9.1 µM. It also gave a TGI (UACC-257 melanoma) of 22.1 µM, a GI50 (UO-31 renal) of 8.08 µM and a TGI (UO-31 renal) of 27 µM. It also gave a GI50 (COLO 205 colon) of 3.26 µM, a TGI (COLO 205 colon) of 11 µM and a GI50 (OVCAR-3 ovarian) of 2.99 µM. The TGI (OVCAR-3 ovarian) was 10.9 µM, the GI50 (UACC-62 melanoma) was 3.21 µM and the TGI (UACC-62 melanoma) was 12.5 µM. It also gave a GI50 (HCT-116 colon) of 0.937 µM, a TGI (HCT-116 colon) of 2.6 µM and a GI50 (A549 NSCLC) of 16.4 µM. It also gave a TGI (A549 NSCLC) of 33.2 µM, a GI50 (CAKI-1 renal) of 4.34 µM and a TGI (CAKI-1 renal) of 15.3 µM. The GI50 (OVCAR-5 ovarian) was 15.2 µM, the TGI (OVCAR-5 ovarian) was 28.5 µM and the GI50 (SF-295 CNS) was 9.85 µM. It also gave a TGI (SF-295 CNS) of 28.3 µM, a GI50 (RXF 393 renal) of 5.3 µM and a TGI (RXF 393 renal) of 23.5 µM. The GI50 (MDA-MB-231 breast) was 1.91 µM, the TGI (MDA-MB-231 breast) was 5.08 µM and the GI50 (MDA-MB-435) was 3.18 µM. It also gave a TGI (MDA-MB-435) of 9.84 µM, a GI50 (T-47D breast) of 3.91 µM and a TGI (T-47D breast) of 17.4 µM. It also gave a GI50 (SK-MEL-28 melanoma) of 3.81 µM, a TGI (SK-MEL-28 melanoma) of 15.9 µM and a GI50 (HS 578T breast) of 4.22 µM. For the same compound, the TGI (HS 578T breast) was 16.8 µM, the GI50 (NCI-H522 lung) was 4.43 µM and the TGI (NCI-H522 lung) was 15.2 µM. The GI50 (SF-268 CNS) was 4.63 µM, the TGI (SF-268 CNS) was 19 µM and the GI50 (NCI/ADR-RES ovarian) was 2.32 µM. For the same compound, the TGI (NCI/ADR-RES ovarian) was 5.19 µM, the GI50 (MALME-3M melanoma) was 3.52 µM and the TGI (MALME-3M melanoma) was 21.9 µM. The GI50 (SW-620 colon) was 0.631 µM, the TGI (SW-620 colon) was 2.92 µM and the GI50 (SR leukemia) was 1.96 µM. The TGI (SR leukemia) was 7.8 µM, the GI50 (TK-10 renal) was 2.91 µM and the TGI (TK-10 renal) was 9.83 µM. The GI50 (SN12C renal) was 2.86 µM, the TGI (SN12C renal) was 8.18 µM and the GI50 (MCF7 breast) was 6.56 µM. It also gave a TGI (MCF7 breast) of 26.7 µM, a GI50 (HOP-62 NSCLC) of 4.08 µM and a TGI (HOP-62 NSCLC) of 13.2 µM. It also gave a GI50 (PC-3 prostate) of 4.16 µM, a TGI (PC-3 prostate) of 11.8 µM and a GI50 (CCRF-CEM leukemia) of 0.57 µM. The TGI (CCRF-CEM leukemia) was 3.19 µM, the GI50 (KM12 colon) was 3.84 µM and the TGI (KM12 colon) was 15.2 µM. The GI50 (NCI-H23 lung) was 3.1 µM, the TGI (NCI-H23 lung) was 10.1 µM and the GI50 (NCI-H226 lung) was 3.63 µM. It also gave a TGI (NCI-H226 lung) of 13.2 µM, a GI50 (HCT-15 colon) of 2.42 µM and a TGI (HCT-15 colon) of 8.81 µM. It also gave a GI50 (IGROV1 ovarian) of 3.57 µM, a TGI (IGROV1 ovarian) of 13 µM and a GI50 (SK-OV-3 ovarian) of 4.34 µM. It also gave a TGI (SK-OV-3 ovarian) of 15.3 µM, a GI50 (MOLT-4 leukemia) of 1.65 µM and a TGI (MOLT-4 leukemia) of over 100 µM. For the same compound, the GI50 (DU-145 prostate) was 3.51 µM, the TGI (DU-145 prostate) was 10.7 µM and the GI50 (K-562 leukemia) was 3.43 µM. The TGI (K-562 leukemia) was 18.3 µM.
